Tests used:
[1] = system: BV-2; test: Inhibition of LPS-induced nitric oxide production in mouse BV2 cells pretreated for 1 hr before LPS stimulation measured after 24 hrs by Griess assay; assay type: functional, cell-based
[2] = Cytotoxicity against human HCT116 cells at 10 uM measured after 72 hrs by MTT assay; assay type: toxicity, cell-based; settings: hct-116, 72 h
[3] = Cytotoxicity against human HepG2 cells at 10 uM measured after 72 hrs by MTT assay; assay type: toxicity, cell-based; settings: hepg2, 72 h
[4] = Cytotoxicity against human BGC823 cells at 10 uM measured after 72 hrs by MTT assay; assay type: toxicity, cell-based; settings: bgc-823, 72 h
[5] = Cytotoxicity against human NCI-H1650 cells at 10 uM measured after 72 hrs by MTT assay; assay type: toxicity, cell-based; settings: nci-h1650, 72 h
[6] = Cytotoxicity against human A2780 cells at 10 uM measured after 72 hrs by MTT assay; assay type: toxicity, cell-based; settings: a2780, 72 h

Row | SMILES | IC50 [1] | Activity [2] | Activity [3] | Activity [4] | Activity [5] | Activity [6]
1 | Oc1cccc2c1[C@@H](O)[C@H]1O[C@H]1C21Oc2cccc3cccc(c23)O1 | 2.05 µM | Non-Toxic | Non-Toxic | Non-Toxic | Non-Toxic | Non-Toxic
2 | Oc1cccc2c1[C@H](O)[C@@H]1O[C@@H]1C21Oc2cccc3cccc(c23)O1 | 4.85 µM | Non-Toxic | Non-Toxic | Non-Toxic | Non-Toxic | Non-Toxic
3 | COc1cc(O)cc2c1C(=O)O[C@@H](C)CCC[C@H](O)CCC2 | 87.1 µM | Non-Toxic | Non-Toxic | Non-Toxic | Non-Toxic | Non-Toxic
4 | Oc1cccc2c1[C@H](O)C[C@@H](O)C21Oc2cccc3cccc(c23)O1 | 67.6 µM | Non-Toxic | Non-Toxic | Non-Toxic | Non-Toxic | Non-Toxic
5 | O=C1C[C@@H](O)[C@]23Oc4cccc5c4[C@](CC[C@@H]5O)(Oc4ccc(O)c1c42)O3 | > 100 µM | Non-Toxic | Non-Toxic | Non-Toxic | Non-Toxic | Non-Toxic
6 | COc1cc(O)cc2c1C(=O)O[C@@H](C)CCC[C@@H](O)CCC2 | > 100 µM | Non-Toxic | Non-Toxic | Non-Toxic | Non-Toxic | Non-Toxic
7 | Oc1cccc2c1[C@@H](O)[C@H](O)[C@@H](O)C21Oc2cccc3cccc(c23)O1 | > 100 µM | Non-Toxic | Non-Toxic | Non-Toxic | Non-Toxic | Non-Toxic
8 | O=C1CC[C@]23Oc4ccc(O)c5c4[C@](Oc4cccc1c42)(O3)[C@H](O)CC5=O | > 100 µM | Non-Toxic | Non-Toxic | Non-Toxic | Non-Toxic | Non-Toxic
9 | CO[C@H]1c2c(O)cccc2C2(Oc3cccc4cccc(c34)O2)[C@H](O)[C@H]1O | 25.7 µM | Non-Toxic | Non-Toxic | Non-Toxic | Non-Toxic | Non-Toxic
10 | O=C1CC[C@]23Oc4ccc(O)c5c4[C@](Oc4cccc1c42)(O3)[C@@H]1O[C@@H]1[C@@H]5O | 11.7 µM | Non-Toxic | Non-Toxic | Non-Toxic | Non-Toxic | Non-Toxic
11 | COc1cc(/C=C/C(=O)CC(=O)/C=C/c2ccc(O)c(OC)c2)ccc1O [CURCUMIN] | 1.42 µM | – | – | – | – | –
12 | COc1cc(O)cc2c1C(=O)O[C@@H](C)CCCCCCC2 [LASIODIPLODIN] | > 100 µM | Non-Toxic | Non-Toxic | Non-Toxic | Non-Toxic | Non-Toxic
13 | CO[C@@H]1CC(=O)c2cccc3c2[C@@]12Oc1ccc(O)c4c1[C@](O3)(O2)[C@@H]1O[C@@H]1[C@@H]4O [PREUSSOMERIN C] | 1.16 µM | Non-Toxic | Non-Toxic | Non-Toxic | Non-Toxic | Non-Toxic

Reference: ChEMBL document CHEMBL3865842, “Spirobisnaphthalenes and lactones from the seeds of Strychnos angustiflora with potential anti-inflammatory activity” (Bioorg Med Chem Lett, 2016)
